The results in this text go back to patent US20190135818A1 (SHANGHAI INSTITUTE OF MATERIA MEDICA, CHINESE ACADEMY OF …, priority 2016, published 2019).

The test system of experiment [1] is Human acute myeloid leukemia cell line KG1. In words: FGFR-dependent tumor cell proliferation inhibition activity test (CCK-8, 72 h). The experiment is classed as cell-based. An excerpt:
Human acute myeloid leukemia cell line KG1 (FGFR1 fusion protein expressed in the cytoplasm, FGFR1-dependent tumor cell line) (ATCC, Cat. No. CCL-246), cell culture medium RPMI-1640 (Corning Cellgro, No. 10-040-CVR), fetal bovine serum (Life
Technologies, Cat. No. 10099-141) was purchased from the company; CCK-8 cell counting kit (DOJINDO, Cat. No. FK808). Adjustable wavelength microplate reader (Molecular Device, Cat. No. SpectraMax 190).
The inhibitory effect of the compound on KG1 proliferation was detected by CCK-8 Cell Counting Kit (Dojindo): Logarithmic growth phase cells were seeded in 96-well culture plate in appropriate density, 90 ul for each well. After cultured overnight, different concentrations of drugs were added and incubated for 72 h, while solvent control well was set (negative control). After the cells were treated by the compound for 72 h, 10 μL of CCK-8 reagent was added to each well. After incubated for 2-4 hours in a 37 □ incubator, the plate was read with SpectraMax 190 microplate reader at wavelength 450 nm.
The inhibition rate of compounds against cell proliferation is calculated by the following formula:
Inhibition rate (%)=(OD negative control well-OD administration well)/OD negative control well×100%.
(§1) The IC50 values were obtained by four-parameter regression analysis using the software supplied with the microplate reader.

For another experiment, the target named is T1, FGFR1 (Homo sapiens, UniProt P11362).
T1 construct: The reaction was initiated by addition of FGFR kinase domain recombinant protein diluted with 49 μL of reaction buffer; purchased Millipore 14-482
T1 sequence (P11362 478-767 limits assumed): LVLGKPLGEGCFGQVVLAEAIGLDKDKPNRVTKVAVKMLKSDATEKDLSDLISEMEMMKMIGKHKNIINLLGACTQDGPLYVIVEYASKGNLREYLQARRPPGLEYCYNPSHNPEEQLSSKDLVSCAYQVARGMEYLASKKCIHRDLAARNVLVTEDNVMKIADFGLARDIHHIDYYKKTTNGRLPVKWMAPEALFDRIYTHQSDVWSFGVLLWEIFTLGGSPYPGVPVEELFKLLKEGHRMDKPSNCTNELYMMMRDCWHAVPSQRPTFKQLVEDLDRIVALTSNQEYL
As to the kind of experiment: FGFR kinase inhibitory activity experiment (ELISA, Poly(Glu,Tyr)4:1 substrate). It counts as biochemical. As to conditions: kinase recombinant protein FGFR1, ATP 5 μM. How it is done: Precision electronic balance (Sartotius, Cat. No. BP210D), adjustable wavelength microplate reader (Molecular Device, Cat. No. SpectraMax 190).
After the liquid was removed from the wells, the plate was washed for three times with 200 μL/well of T-PBS (PBS containing 0.1% Tween-20) for 5 minutes each time. The enzyme plate was dried at 37° C. in a dryer for 1-2 hours.
50 μL ATP solution diluted with reaction buffer (50 mM HEPES pH 7.4, 50 mM MgCl2, 0.5 mM MnCl2, 0.2 mM Na3VO4, 1 mM DTT) was added into each well at a 5 μM final concentration. The compounds were diluted to appropriate concentration in DMSO, 1 μL/well or containing the corresponding concentrations of DMSO (negative control wells). The reaction was initiated by addition of FGFR kinase domain recombinant protein diluted with 49 μL of reaction buffer. Two control wells without enzyme were set in each experiment. The plate was placed on a shaker (100 rpm) at 37° C. for 1 hour. The plate was washed with T-PBS for three times. 100 μL/well of primary antibody PY99 dilution was added, and incubated at 37° C. for 0.5 hour on a shaker (100 rpm). The plate was washed with T-PBS for three times. 100 μL/well of horseradish peroxidase-labeled secondary anti-goat anti-mouse IgG dilution was added and incubated at 37° C. for 0.5 hour on a shaker (100 rpm). The plate was washed with T-PBS for three times. 100 μL/well of 2 mg/mL OPD coloration solution (diluted with 0.1 M citric acid-sodium citrate buffer containing 0.03% H2O2 (pH=5.4)) was added, and incubated in darkness for 1-10 minutes at 25° C. The reaction was quenched with 50 μL/well 2M H2SO4, and read at 490 nm using a tunable microplate microplate reader SPECTRA MAX 190.
The inhibition ratio of the sample was determined by the following formula: […]
as §1

The test system of experiment [2] is human lung cancer NCI-H1581 transplanted tumor. As to the kind of experiment: Tumor growth inhibition in tumor-bearing mice (subcutaneously transplanted tumor). The experiment is classed as in vivo, BALB/cA nude mice. How it is done: Before using, the compound was diluted with 5% Tween80 in normal saline to the desired concentration (light yellow suspension), and was prepared once a week.
Before using, the compound was diluted with 1% Tween 80 in normal saline to the desired concentration (white suspension), and was prepared once a week.
The cell strain was inoculated in the right axilla of the nude mice, and the amount of cells inoculated was 5×10^6/animal to form transplanted tumor, and passaged in vivo in nude mice by 1 generation before use.
The tumor tissue in the vigorous growth period was cut into 1.5 mm^3, and inoculated subcutaneously in the right axilla of the nude mice under aseptic conditions. The diameter of the subcutaneously transplanted in a nude mice was measured with a vernier caliper, and the animals were randomly grouped when the average volume of tumors was about 220 mm^3. […] The solvent control group was given an equal amount of normal saline. The diameter of the transplanted tumor was measured twice a week during the entire experiment, and the body weights of the mice were weighed. The calculation formula of tumor volume (TV) is: TV=1/2×a×b2, where a and b respectively represent the length and width of the tumor. The relative tumor volume (RTV) was calculated based on the measured results and the formula was: RTV=Vt/V0. Where V0 is the tumor volume measured before grouping and dosing (d0), and Vt is the tumor volume at each measurement.

Where [3] appears, read: AZD4547 12.5 mg/kg po qd/13, d13.

As to `C=CC(=O)N1CCCC(n2nc3c(=O)[nH]nc(N)c3c2-c2oc3ccc(C)cc3c2C)C1` (stereo not drawn) [Compound A40, 2-(1-acryloylpiperidin-3-yl)-4-amino-3-(3,5-dimethyl-1-benzofuran-2-yl)-2,6-dihy-dro-7H-pyrazolo[3,4-d]pyridazin-7-one], the half-maximal inhibitory concentration (IC50) in experiment [1] (Homo sapiens, KG-1, KG1 cells) was no more than 100 nM; on FGFR1, less than 100 nM.
As to `CCC(=O)N1CCC(n2nc3c(=O)[nH]nc(N)c3c2-c2oc3ccc(Cl)cc3c2C)CC1` [Compound A41], the IC50 in experiment [1] (Homo sapiens, KG-1, KG1 cells) is 100 to 1000 nM; at FGFR1, less than 100 nM.
For the molecule `C=CC(=O)N1CCC(n2nc3c(=O)[nH]nc(N)c3c2-c2oc3ccc(C)cc3c2C)C1` (stereo not drawn) [Compound A51, 2-(1-acryloylpyrrolidin-3-yl)-4-amino-3-(3,5-dimethyl-1-benzofuran-2-yl)-2,6-dihydro-7H-pyrazolo[3,4-d]pyridazin-7-one], the IC50 was no more than 100 nM in experiment [1] (Homo sapiens, KG-1, KG1 cells) and less than 100 nM on FGFR1.
On the same counts, the results for `C=C(F)C(=O)N1CCC(n2nc3c(=O)[nH]nc(N)c3c2-c2oc3ccc(C)cc3c2C)C1` (stereo not drawn) [Compound A52, 4-amino-3-(3,5-dimethyl-1-benzofuran-2-yl)-2-[1-(2-fluoroacryloyl)pyrrolidin-3-yl]-2,6-dihydro-7H-pyrazolo[3,4-d] pyridazin-7-one] are no more than 100 nM and less than 100 nM.
Consider `C=C(C#N)C(=O)N1CCC(n2nc3c(=O)[nH]nc(N)c3c2-c2oc3ccc(C)cc3c2C)CC1` [Compound A55, 2-({4-[4-amino-3-(3,5-dimethyl-1-benzo-furan-2-yl)-7-carbonyl-6,7-dihydro-2H-pyrazolo[3,4-d]pyridazin-2-yl]piperidin-1-yl}carbonyl)prop-2-enenitrile], for which the IC50 in experiment [1] (Homo sapiens, KG-1, KG1 cells) is no more than 100 nM; at FGFR1, less than 100 nM.
As for `C=CC(=O)N1CCCC(n2nc3c(=O)[nH]nc(N)c3c2-c2oc3ccc(OC)cc3c2C)C1` (stereo not drawn) [Compound A79, 2-(1-acryloylpiperidin-3-yl)-4-amino-3-(5-methoxy-3-methylbenzofuran-2-yl)-2,6-dihydro-7H-pyrazolo[3,4-d] pyridazin-7-one], the IC50 was no more than 100 nM in experiment [1] (Homo sapiens, KG-1, KG1 cells) and less than 100 nM at FGFR1.
For `C=CC(=O)N1CCC(n2nc3c(=O)[nH]nc(N)c3c2-c2oc3ccc(F)cc3c2C)CC1` [Compound A80, 2-(1-acryloylpiperidin-4-yl)-4-amino-3-(5-fluoro-3-methylbenzofuran-2-yl)-2,6-dihydro-7H-pyrazolo[3,4-d]pyridazin-7-one], in that order: 100 to 1000 nM and 100 to 1000 nM.
Turning to `C=CC(=O)N1CCC(n2nc3c(=O)[nH]nc(N)c3c2-c2oc3cc(C)ccc3c2C)CC1` [Compound A82, 2-(1-acryloylpiperidin-4-yl)-4-amino-3-(3,6-dimethylbenzofuran-2-yl)-2,6-dihy-dro-7H-pyrazole[3,4-d]pyridazin-7-one], the IC50 in experiment [1] (Homo sapiens, KG-1, KG1 cells) is no more than 100 nM; on FGFR1, less than 100 nM.
On the same counts, the results for `C=CC(=O)N1CCC(n2nc3c(=O)[nH]nc(N)c3c2-c2oc3cc(F)ccc3c2C)CC1` [Compound A83, 2-(1-acryloylpiperidin-4-yl)-4-amino-3-(6-fluoro-3-methylbenzofuran-2-yl)-2,6-dihydro-7H-pyrazole[3,4-d]pyridazine-7-one] are no more than 100 nM and less than 100 nM.
`C=CC(=O)N1CCC(n2nc3c(=O)[nH]nc(N)c3c2-c2oc3cc(Cl)ccc3c2C)CC1` [Compound A84, 2-(1-acryloylpiperidin-4-yl)-4-amino-3-(6-chloro-3-methylbenzofuran-2-yl)-2,6-dihydro-7H-pyrazolo[3,4-d]pyridazine-7-one]: the 50% inhibitory concentration (IC50) was no more than 100 nM in experiment [1] (Homo sapiens, KG-1, KG1 cells) and less than 100 nM on FGFR1.
With `C=CC(=O)N1CCC(n2nc3c(=O)[nH]nc(N)c3c2-c2oc3ccc(C)cc3c2CC)CC1` [Compound A85, 2-(1-acryloylpiperidin-4-yl)-4-amino-3-(3-ethyl-5-methylbenzofuran-2-yl)-2,6-dihydro-7H-pyrazolo[3,4-d]pyridazin-7-one], the IC50 is no more than 100 nM in experiment [1] (Homo sapiens, KG-1, KG1 cells) and less than 100 nM at FGFR1.
For the molecule `C=CC(=O)N1CCC(n2nc3c(=O)[nH]nc(N)c3c2-c2oc3ccc(Cl)cc3c2C)CC1` [Compound A86, 2-(1-acryloylpiperidin-4-yl)-4-amino-3-(5-chloro-3-methylbenzofuran-2-yl)-2,6-dihydro-7H-pyrazolo[3,4-d]pyridazin-7-one], the IC50 in experiment [1] (Homo sapiens, KG-1, KG1 cells) is no more than 100 nM; on FGFR1 it was less than 100 nM.
As to `C=CC(=O)N1CCCC(n2nc3c(=O)[nH]nc(N)c3c2-c2oc3ccc(Cl)cc3c2C)C1` (stereo not drawn) [Compound A87, 2-(1-acryloylpiperidin-3-yl)-4-amino-3-(5-chloro-3-methylbenzofuran-2-yl)-2,6-dihydro-7H-pyrazolo[3,4-d]pyridazine-7-one], the IC50 in experiment [1] (Homo sapiens, KG-1, KG1 cells) was no more than 100 nM; at FGFR1 it was less than 100 nM.
In the case of `C=CC(=O)NC1CCC(n2nc3c(=O)[nH]nc(N)c3c2-c2oc3ccc(C)cc3c2C)CC1` (stereo not drawn) [Compound A88, N-(4-(4-amino-3-(3,5-dimethylbenzo-furan-2-yl)-7-carbonyl-6,7-dihydro-2H-pyrazolo[3,4-d]pyridazin-2-yl)cyclohexyl)acryloylamide], the IC50 in experiment [1] (KG1 cells) is no more than 100 nM; on FGFR1 it was less than 100 nM.
AZD4547 [reference compound]: the “growth of subcutaneously transplanted tumors (in words)” value in experiment [2] (12.5 mg/kg orally once a day for 13 days) was “partially inhibited”. The “T/C (%)” value in experiment [2] (AZD4547 12.5 mg/kg po qd/13, 13th day) is 16.39%. The “TV (mm^3, mean ± SD) d0” value in experiment [2] (AZD4547 12.5 mg/kg po qd/13, d0, before dosing) came out at 153 ± 50 mm^3. Moreover, in experiment [2] (setting [3]), the “RTV (mean ± SD)” value is on record as 3.43 ± 2.61 and the “TV (mm^3, mean ± SD) d13” value amounted to 517 ± 392 mm^3.
